Key:
[1] = system: Autoimmune Hepatitis-Type 1 patient; test: Autoimmune Hepatitis-Type 1 case report; conditions: 4.5 mg nightly
MS patients [2] = test: retrospective chart review of MS patients receiving LDN; assay type: in vivo, human
Excerpt: This study investigated the safety, tolerability, and benefits (fatigue, reduction) of LDN in patients with MS. It reviewed the number of patients who stopped taking LDN and if there were specific reasons for stopping the LDN. The frequency and variety of side effects that were specific to LDN use are reported. […] 1, 2005 and May 31, 2012. There were 215 MS patients having exposure to LDN during the time of this study. […] In addition to the assessment we review Brain MRIs and Spinal Cord MRIs that were obtained as part of the clinical status of the patient and standard of care.
It reviewed the number of patients who stopped taking IMMEDIATE RELEASE NALTREXONE (LDN) and if there were specific reasons for stopping the IMMEDIATE RELEASE NALTREXONE (LDN). […] 1, 2005 and May 31, 2012. […]. In addition to the assessment we review Brain MRIs and Spinal Cord MRIs that were obtained as part of the clinical status of the patient and standard of care. […].

MS patients [3] = test: multiple sclerosis case reports; assay type: in vivo, human
HIV = test: single blind 90 day randomized bridging clinical trial in Nigeria, asymptomatic HIV+ adults on ART; assay type: in vivo, human
Procedure: The differences in CD4 count, CD4%, hemoglobin, viral load, interferon alpha, and standard chemistry panel were measured between treated versus non-treated groups four times throughout the study. […] When used alone, it appears to slow and/or stop the progression of the disease.

Hepatitis C = Hepatitis C case reports; assay type: in vivo, human
Fibromyalgia patient = test: Fibromyalgia and Epstein Barr case report; assay type: in vivo, human
Excerpt: A person was diagnosed in 1998 Fibromyalgia and Epstein Barr, had to quit work, in pain and very depressed. Various treatments over the years for pain prescribed and other problems with the disease. […]

cancer patients = test: cancer case reports; assay type: in vivo, human
Procedure: person diagnosed with stage 3-stomach cancer prognosis 6 months to live on Mar. […] 28, 2007. In addition to Immediate release naltrexone patients received chemotherapy and kidney stents inserted. […].
Person diagnosed with stage 4 pleural mesothelioma in December of 2008 and patients after consult with two other doctors it was determined due to the state of the diseases and other health issues to watch the tumors and not do chemotherapy. Prognosis was 6 to 12 months. Patient started 4.5 mg nightly and received on other treatment but did change diet. […] […].
A person diagnosed with stage 4-colon cancer, 2007 which had spread to their lungs and liver, they removed 40% of their colon and began a round of chemotherapy and three surgeries removed 40% of their colon, half is their right lung and 75% of their liver. During the next 18 months received 47 weeks of chemotherapy (a combination of 4 chemo drugs at once). […].
person was diagnosed with stage 3 prostate cancer which they were originally treated for 5 years before began 3 rounds of Docetaxel (Taxotere®). They were prescribed 4.5 mg of […]

[4] = system: Rheumatoid Arthritis patients; test: rheumatoid arthritis case reports; assay type: in vivo, human
Procedure: A person diagnosed with Rheumatoid Arthritis in 2006 and was being treated with methotrexate and plaquenil but patients continued with pain and fatigue. […]
A person diagnosed 5 years ago with RA was treated with Methotrexate 25 mg per week and Remicade 300 U every 6 weeks, the fatigue and pain continued, along with the inflammation and general weakness. Sleep disturbed nightly due to pain in my shoulders and hips. Patient felt their life was not acceptable and none of the immunosuppression drugs were helping. […] Within two weeks patient stopped even ibuprophen. Rheumatoid factor has gone from 127 to 66 in 4 months and has stayed stable. […] Occasionally patient has pain but it is easily controlled with a normal dosage of ibuprophen.
A person, diagnosed with RA in 1999 stayed very active until 2005 on a combination of Methotrexate and Prednisone but was have difficulty maintaining their business due to fatigue and severe joint pain with deformity of their hands and elbows. Patient was told to increase their does and start a second immunomodulating drug. Patient no longer wanted to continue with immunosuppression drug or steroids due to the side effects. […]; they have no pain that can't be handled with aspirin.

[5] = system: autistic children, lymphocyte subsets; test: behavioral and immunological assessment in autism during double-blind naltrexone treatment; assay type: in vivo, human
Excerpt: Opioid-immune interactions in autism: behavioral and immunological assessment during a double-blind treatment with naltrexone.
Changes in natural killer cells and activity were inversely related to plasma beta-endorphin levels.

systemic lupus patients = test: systemic lupus case reports; assay type: in vivo, human
Excerpt: […]. […] […].
Psoriasis mostly resolved.

women with fibromyalgia = test: randomized, double blind, placebo-controlled crossover study, 31 women with fibromyalgia; assay type: in vivo, human; conditions: 4.5 mg daily
Excerpt: Thirty-one women with fibromyalgia participated in the randomized, double blind, placebo-controlled, and counterbalanced, crossover study. […]. An intensive longitudinal design was used to measure daily levels of pain. […]; P=0.016). […]. […] […]; P=0.016). […].

SMILES: O=C1CC[C@@]2(O)[C@H]3Cc4ccc(O)c5c4[C@@]2(CCN3CC2CC2)[C@H]1O5 [Immediate release naltrexone, naltrexone]
- side effects, person, Autoimmune Hepatitis-Type 1 [1]: vivid dreams and mild indigestion in the first two weeks
- quality of life over a long period of time (MS patients [2]; 215 MS patients exposed): improvement in quality of life
- Brain MRI scans showing improvement (MS patients [2]; of 215 patients): 14 MRI scans
- Brain MRI scans slightly worse (MS patients [2]; of 215 patients, new but inactive lesion(s)): 28 MRI scans
- first three months, person, Secondary Progressive MS (MS patients [3]; 1.5 mg at bedtime increasing to 3 mg from July of 2005): no real improvement in the first three months accept no flair of MS
- disease course, person, relapsing remitting MS (MS patients [3]; 1.5 mg increasing to 4.5 mg nightly with progesterone, estriol, Cortef): back at work for 5 years without an exacerbation
- MRI, person, secondary-progressive multiple sclerosis (SPMS) (MS patients [3]; 1.5 mg then 3 mg from July of 2009, January of 2011): MRI showed reduced plaque and lesion size
- disease course, person, fast deteriorating M.S. (MS patients [3]; 1.5 mg, 3 mg, then 4.5 mg for seven months): the disease has stabilized and the progressive deterioration has stopped
- disease course, person, M.S. of 35 years (MS patients [3]; 3 mg for 30 days then 4.5 mg at bedtime, over three months): regained their ability to see and walk and their cognitive ability improved as well
- mobility, person four, Relapsing Remitting MS, wheelchair bound (MS patients [3]; 3 mg nightly from July 2004): walking again with a cane for assistance within 10 days
- relapses, person two, Relapsing Remitting MS (MS patients [3]; 4.5 mg at bedtime since 2002): has not had a one relapse
- side effects, person four, Relapsing Remitting MS (MS patients [3]; 4.5 mg nightly from August of 2004): minimal side effects some insomnia
- relapses, person four, Relapsing Remitting MS (MS patients [3]; 4.5 mg nightly, last update 2010): no relapses
- MRI, person two, Relapsing Remitting MS (MS patients [3]; 4.5 mg, over the last 8 years): no progression of the disease
- mobility, person, Secondary Progressive MS (MS patients [3]; months 3 to 6, later 4.5 mg): upgraded from wheelchair to cane
- increase in CD4 count (HIV; about 4.5 mg single oral dose with ART, at 3 months): 44%
- BMI (HIV; about 4.5 mg with ART): increase in BMI
- opportunistic infections (HIV; about 4.5 mg with ART): reduction in opportunistic infections
- improvement in CD4 count vs control group (HIV; about 4.5 mg with ART, at 3 months, control 54 subjects): significantly greater than the control group
- Improvement in CD4% (HIV; about 4.5 mg with ART, throughout treatment): the increases were statistically significant
- Viral load, person, Hepatitis C & stage 4 cirrhosis (Hepatitis C; 4.5 mg, by August of 2011): 8.3 million
- HCV viral load, person (Hepatitis C; May 2010): 11.400
- ultrasound and liver enzymes, person, Hepatitis C (Hepatitis C; all other medication stopped): No fatty liver, Liver enzymes dropped to normal
- HCV viral load, person (Hepatitis C; started February of 2009, May 2009, from over a million in January 2009): 49,000
- decrease of pain level, person, Fibromyalgia and Epstein Barr (Fibromyalgia patient; 0.5 mg in 2004 increased to 3 mg): 90%
- antidepressant use, person, Fibromyalgia (Fibromyalgia patient; 0.5 mg increased to 3 mg): no longer need to take anti-depressants
- tolerance of chemotherapy, person, stage 4-colon cancer (cancer patients; 4.5 mg nightly from June of 2007 with chemotherapy): able to complete the entire protocol without any major side effects at all
- tolerance of chemotherapy, person, stage 3 prostate cancer (cancer patients; 4.5 mg nightly with 3 rounds of Docetaxel): able to withstand the chemotherapy and their blood work stayed stable throughout the protocol
- CAT scans, person, stage 4 pleural mesothelioma (cancer patients; 4.5 mg nightly, no chemotherapy, February 2009 and 2010): no measurable growth of tumors
- disease course, person, stage 4-colon cancer (cancer patients; 4.5 mg nightly, scans every six months): continued cancer free until June of 2015
- CT scan, person, stage 3-stomach cancer (cancer patients; 4.5 mg with chemotherapy, September 2007): tumors shrunk in half
- disease status, person, stage 3-stomach cancer (cancer patients; 4.5 mg, December of 2007): in remission and stable
- CT scan, person, stage 3-stomach cancer (cancer patients; 4.5 mg, March 2008): tumors had shrunk in half
- scan, person, stage 3-stomach cancer (cancer patients; 4.5 mg, March of 2009): tumors were stable
- medication use, person, Rheumatoid Arthritis ([4]; 1.5 mg titrated up to 4.5 mg from April of 2009): Successfully discontinued methotrexate March of 2010 and then discontinued plaquenil in October of 2010
- fatigue, person, RA ([4]; 4.5 mg at bedtime): Fatigue is gone
- Rheumatoid factor, person, RA ([4]; 4.5 mg at bedtime, from 127 in 4 months): 66
- medication use, person, RA ([4]; 4.5 mg at bedtime, within 7 days): stooped all traditional RA medications
- disease course, person, RA ([4]; 4.5 mg with diet, supplements, hormones etc., 7 years later): RA has not advanced
- T-cytotoxic-suppressor (CD4−CD8+) [5]: significant reduction
- T-helper-inducers (CD4+CD8−) [5]: significant increase
- MRSA recurrence, person, systemic lupus (systemic lupus patients; 1.5 mg): No recurrence of MRSA in 8 years
- tolerability, person, systemic lupus (systemic lupus patients; 1.5 mg starting dose): unable to take it due to insomnia and pruritis
- mobility, person, Systemic Lupus (systemic lupus patients; 3 mg from March 2013, within three weeks): improved mobility
- skin, person, Systemic Lupus (systemic lupus patients; 3 mg increasing to 4.5 mg, within 4 months): skin cleared almost 100%
- hospital stays, person, Systemic Lupus (systemic lupus patients; 4.5 mg): no hospital stays since March of 2013
- disease status, person, systemic lupus (systemic lupus patients; liquid form, 0.1 mg increased weekly to 1.5 mg, with supplements, diet): Lupus, in remission
- fatigue or sleep (women with fibromyalgia): not improved fatigue or sleep
- tolerability and side effects (women with fibromyalgia): rated equally tolerable as placebo, and no serious side effects were reported
- mood (women with fibromyalgia; P=0.039): improved mood
- general satisfaction with life (women with fibromyalgia; P=0.045): improved general satisfaction with life
- participants meeting the criteria for response (women with fibromyalgia; placebo 11%, P=0.05): Thirty-two
